From patent US8338392B2, “MicroRNA modulators and method for identifying and using the same” (The Wistar Institute, priority 2008, dated 2012)
“Also recorded” adds a separate entry of the source.

How the values were obtained:
Format in all cases: cell-based, human
mature miR-30 = assay: Quantitative RT-PCR of mature miR-30; conditions: MDA-MB-231, MCF-7 and A172 cell lines
Description: (§1) UNG (Applied Biosystems). […] (Sigma). […] ID NO:18); E-cadherin: forward [NT] ID NO:19), reverse [NT] ID NO:20); Fibronectin: forward [NT] ID NO:21), reverse [NT] ID NO:22); RAP1A: forward [NT] ID NO:23), reverse [NT]

[1] = test system: HCT116 colon cancer cells; assay: Cell proliferation of HCT116 cells, drug combinations
Description: The % activity indicates % live cell activity.

mature miR-21 = assay: Quantitative RT-PCR of mature miR-21; conditions: for mature miR-21 expression upon treatment: HCT116 colon cancer cells and A172 glioblastoma cells
Description: as §1

Luc-Linker control = Luc-Linker control luciferase reporter in HeLa cells; conditions: 10 μM, relative to DMSO, listed as diazobenzene 2
Description: (§2) MicroRNA miR-21 was selected as a target miRNA due to its involvement as an anti-apoptotic factor in cancer cells and its elevated levels in various cancers such as breast, ovarian, and lung cancer as well as glioblastoma (Chan, et al. (2005) Cancer Res. 65:6029). Lentiviral reporter constructs for miRNA activity were assembled by introducing the complementary sequences of mature miR-21 (5′-UAGCUUAUCAGACUGAUGUUGA-3′; SEQ ID NO:13), miR-30A (5′-CUUUCAGUCGGAUGUUUGCAGC-3′; SEQ ID NO:14) as a specificity control, and a linker sequence (a previously present multiple-cloning site with no detectable recognition by natural miRNAs) downstream of a luciferase reporter gene as a negative control (FIG. 1).
(§3) Luc-miR-21, Luc-miR-30A, and Luc-linker (control) were, by viral infection, introduced into HeLa cells, which express high levels of miR-21, but only low levels of miR-30A (Cheng, et al. (2005) Nucl. Acids Res. 33:1290).
(§4) It was subsequently determined whether Compound 2 was a specific inhibitor of miR-21 or whether it could interfere with the general miRNA biogenesis pathway. Thus, HeLa cells stably expressing both the miR-30 luciferase reporter construct and miR-30 were treated with Compound 2.

mature miR-93 = assay: Quantitative RT-PCR of mature miR-93; conditions: MDA-MB-231, MCF-7 and A172 cell lines
Description: as §1

miR-30 = miR-30 luciferase reporter in HeLa cells expressing miR-30; conditions: HeLa cells expressing miR-30 reporter and miR-30, 10 μM
Description: as §2
The specificity of the reporter system was tested by assaying cells which contained both the Luc-miR-30A reporter and a construct expressing exogenous miR-30.
as §4

[2] = test system: primary miR-21 (pri-miR-21); assay: Quantitative RT-PCR of primary miR-21; conditions: for primary miR-21 expression upon treatment: HCT116 colon cancer cells and A172 glioblastoma cells
Description: UNG (Applied Biosystems). […] (Sigma).

miR-21 = assay: Luc-miR-21 luciferase reporter assay in HeLa cells; conditions: for Luciferase Assay: HeLa cells with Luc-miR-21 reporter, screen at 10 μM, 48 hours
Description: as §2, §3
To illustrate the method of the present invention, a primary screen of >1000 compounds was conducted. The library was composed of a collection of novel compounds and the Library of Pharmacologically Active Compounds (LOPAC library, Sigma-Aldrich, St Louis, Mo.). All compounds were stored at a 10 mM concentration in DMSO to keep the DMSO concentration in the actual screen at 0.1% thereby minimizing toxicity. HeLa cells stably expressing the miR-reporter were treated with DMSO ranging from 0.1-1%. Luciferase signals were determined 48 hours after the treatment.
HeLa cells (2500 cells) were plated in each well of 384-well plate 24 hour before the addition of compounds. Compounds at 10 μM final concentration were added to each well. Luciferase signal were determined 48 hours after compound treatment. Using this screening assay, compound 1 was identified as a miR-21 antagonist.

[3] = MDA-MB-231, MCF-7 and A172 cell lines

Structure (SMILES): C#CCNC(=O)c1ccc(/N=N/c2ccccc2)cc1 [Compound 2, (E)-4-(Phenyldiazenyl)-N-(prop-2-ynyl)benzamide]
- effect on mature miR-30 (mature miR-30): no effect
- proliferation of HCT116 cells, combination with 5-FU ([1]; combination with 5-FU): synergistic effect; also recorded: synergistically decrease the proliferation
- proliferation of HCT116 cells, combination with Curcumin ([1]; combination with Curcumin): synergistic effect; also recorded: synergistically decrease the proliferation
- effect on mature miR-21 (mature miR-21; [3]): suppressed
- effect on luciferase signal, Luc-Linker control (Luc-Linker control): does not affect; also recorded: did not affect the luciferase signal
- effect on mature miR-93 (mature miR-93): no effect
- effect on luciferase signal, miR-30 reporter (miR-30): no increase of the luciferase signal was detected
- effect on luciferase signal, miR-30 reporter (miR-30; listed as diazobenzene 2): does not affect
- effect on primary miR-21 [2, 3]: suppressed
- fold increase of the luciferase signal (miR-21; 10 μM, HeLa cells): 5 fold
- Luciferase Assay (miR-21): 4.83

Structure (SMILES): C#CCNC(=O)c1ccc(NNc2ccccc2)cc1 [Compound 3]
- Luciferase Assay (miR-21): 3.67

Structure (SMILES): Cn1c2c(c3ccccc3c1=O)C(=O)c1cc3c(cc1-2)OCO3 [Compound 4]
- Luciferase Assay (miR-21): 3.12

Structure (SMILES): O=c1[nH]cc(F)c(=O)[nH]1 [Compound 5-FU, 5-fluorouracil]
- mature miR-21 expression upon treatment (mature miR-21): increased
- primary miR-21 expression upon treatment [2]: increased

Structure (SMILES): O=C1c2cc3c(cc2-c2[nH]c(=O)c4ccccc4c21)OCO3 [Compound 5]
- Luciferase Assay (miR-21): 2.92

Structure (SMILES): COc1ccc2c(c1[N+](=O)[O-])CCC1C2CC[C@]2(C)C(=O)CCC12 (stereo partly shown) [Compound 6]
- Luciferase Assay (miR-21): 3.34

Structure (SMILES): COc1ccc2c(c1N)CCC1C2CC[C@]2(C)C(=O)CCC12 (stereo partly shown) [Compound 7]
- Luciferase Assay (miR-21): 3.04-3.87

Structure (SMILES): COc1cc2c(cc1N)C1CC[C@]3(C)C(=O)CCC3C1CC2 (stereo partly shown) [Compound 8]
- Luciferase Assay (miR-21): 3.50

Structure (SMILES): COc1cc(/C=C/C(=O)CC(=O)/C=C/c2ccc(O)c(OC)c2)ccc1O [Curcumin, curcumin]
- mature miR-21 expression upon treatment (mature miR-21): increased
- primary miR-21 expression upon treatment [2]: increased

Structure (SMILES): C[C@]12CC[C@@H]3c4ccc(O)cc4CC[C@H]3[C@@H]1CCC2=O [Estrone, estrone, reference compound]
- Luciferase Assay (miR-21): 2.76
